# Literature values in patent EP4459286A1, “KIT FOR QUANTITATIVELY DETERMINING TACROLIMUS IN WHOLE BLOOD BY LOW-RESISTANCE LATEX-ENHANCED IMMUNE COMPETITION METHOD, AND USE THEREOF” (SHANGHAI YUNZE BIOTECHNOLOGY CO., LTD, priority 2021, dated 2023).
# Read-outs that look alike come from different tables or passages of the source.
# Assays:
# [1] = rescue therapy, cyclosporine ineffective
# [2] = compared with cyclosporine
smiles,measurement,setting,value
"C=CC[C@@H]1/C=C(\C)C[C@H](C)C[C@H](OC)[C@H]2O[C@@](O)(C(=O)C(=O)N3CCCC[C@H]3C(=O)O[C@H](/C(C)=C/[C@@H]3CC[C@@H](O)[C@H](OC)C3)[C@H](C)[C@@H](O)CC1=O)[C@H](C)C[C@@H]2OC [tacrolimus, Tacrolimus]",success rate,[1]; kidney transplantation patients,74%
same,success rate,[1]; liver transplantation patients,87%
same,effect of preventing rejection in various organ transplants,[2],superior to that of cyclosporine
